Here are results for 2 compounds from patent publication US20150274834A1, “COMBINATION THERAPY OF AN AFUCOSYLATED CD20 ANTIBODY WITH FLUDARABINE AND/OR MITOXANTRONE” (Roche Glycart AG, priority 2009, published 2015).

Assay [1] has as its system NHL cell lines (Granta-519, HBL-2, Jeko-1, Rec-1, Z-138, Karpas-422). The assay is described as follows: Trypan blue exclusion viability/proliferation test, NHL cell line panel. Type of assay: cell-based. The conditions noted are these: chemotherapeutic alone (Fludarabine 0.25 μg/ml; Mitoxantrone 0.25 and 0.5 μg/ml), across cell lines. An excerpt: The following Non-Hodgkin Lymphoma (NHL) cell lines were used in the experiments: Granta-519, HBL-2, Rec-1 and Z-138 as Mantle Cell Lymphoma cell lines and a Karpas-422 as a Diffuse Large B-Cell Lymphoma cell line. All cell lines were obtained from the “Deutsche Sammlung von Mikroorganismen and Zellkulturen GmbH” (DSMZ), Braunschweig, Germany. […] Granta 519, HBL-2, JeKo-1, Rec-1 and Z-138 were cultivated in RPMI-1640 medium with 10% heat-inactivated FCS and 1% Penicillin/Streptomycin. The density of viable cells was determined with BeckmanCoulter ViCell™ Cell Viability Analyzer on the basis of the trypan blue cell exclusion method. The test is based on the principle that viable cells have an intact cell membrane that blocks the uptake of trypan blue whereas dead cells have lost this ability. Therefore viable cells have a transparent cytoplasm whereas dead cells can be identified due to their blue cytoplasm. […] Trypan-blue exclusion tests were used to analyze cell viability. […] These concentrations were determined in pre-experiments on MCL cells • 1. 0.25 μg/ml Fludarabine • 2. 0.25 and 0.5 μg/ml Mitoxantrone 1 ml samples were taken at 0 h, 24 h, 48 h, 72 h every day and the number of viable cells was determined. […] Experiments were independently performed three times.

Assay [2] deals with human Z138 mantle cell lymphoma xenograft. Nature of the assay: Tumor growth inhibition study in vivo, Z138 xenograft. As to conditions: day 36 after tumor cell inoculation; antibodies 1 mg/kg i.v. day 22 and 29; fludarabine 40 mg/kg i.p. day 22-25. Also on record: species or system SCID beige mice. How it is done:
Antibody buffer included histidine, trehalose and polysorbate 20.
Cells were co-injected with Matrigel.
Experimental study protocol was reviewed and approved by local government. […] Continuous health monitoring was carried out on regular basis. Diet food (Provimi Kliba 3337) and water (acidified pH 2.5-3) were provided ad libitum.
Animals were controlled daily for clinical symptoms and detection of adverse effects.
The corresponding vehicle was administered on the same days.

In assay [3] the test system is Rec-1 MCL cells. Nature of the assay: Trypan blue exclusion viability/proliferation test, Rec-1. It is filed as cell-based. As to conditions: mono-exposure 1 μg/ml. How it is done: (§1) The following Non-Hodgkin Lymphoma (NHL) cell lines were used in the experiments: Granta-519, HBL-2, Rec-1 and Z-138 as Mantle Cell Lymphoma cell lines and a Karpas-422 as a Diffuse Large B-Cell Lymphoma cell line. All cell lines were obtained from the “Deutsche Sammlung von Mikroorganismen and Zellkulturen GmbH” (DSMZ), Braunschweig, Germany.
(§2) All cell lines were stored according to standard procedures and cultivated at 37° C., 5% CO2- and 95% relative humidity in a CO2 incubator. Granta 519, HBL-2, JeKo-1, Rec-1 and Z-138 were cultivated in RPMI-1640 medium with 10% heat-inactivated FCS and 1% Penicillin/Streptomycin.
(§3) The density of viable cells was determined with BeckmanCoulter ViCell™ Cell Viability Analyzer on the basis of the trypan blue cell exclusion method. The test is based on the principle that viable cells have an intact cell membrane that blocks the uptake of trypan blue whereas dead cells have lost this ability. Therefore viable cells have a transparent cytoplasm whereas dead cells can be identified due to their blue cytoplasm.
(§4) Trypan-blue exclusion tests were used to analyze cell viability.
(§5) These concentrations were determined in pre-experiments on MCL cells • 1. 0.25 μg/ml Fludarabine • 2. 0.25 and 0.5 μg/ml Mitoxantrone
(§6) 1 ml samples were taken at 0 h, 24 h, 48 h, 72 h every day and the number of viable cells was determined. […]

In assay [4] the test system is Jeko-1 MCL cells. Nature of the assay: Trypan blue exclusion viability/proliferation test, Jeko-1. As to conditions: mono-exposure 1 μg/ml. It is filed as cell-based. How it is done:
as §2, §3, §4, §5
1 ml samples were taken at 0 h, 24 h, 48 h, 72 h every day and the number of viable cells was determined. The reduction of cell proliferation was used for a fractional product calculation (synergism >0.1; additive effect −0.1<x<0.1; antagonism <−0.1). Experiments were independently performed three times.

Assay [5] concerns Granta-519 MCL cells. The assay is described as follows: Trypan blue exclusion viability/proliferation test, Granta-519. Type of assay: cell-based. As to conditions: mono-exposure 1 μg/ml. On the procedure: as §1, §2, §3, §4, §5, §6
Assay [6] relates to HBL-2 MCL cells. Nature of the assay: Trypan blue exclusion viability/proliferation test, HBL-2. Type of assay: cell-based. As to conditions: mono-exposure 1 μg/ml. How it is done:
as §1, §2, §3, §4, §5, §6

Turning to `O=C1c2c(O)ccc(O)c2C(=O)c2c(NCCNCCO)ccc(NCCNCCO)c21` [Mitoxantrone, 1,4-dihydroxy-5,8-bis[2-(2-hydroxyethylamino)ethylamino]-anthracene-9,10-dione], the cell reduction in assay [1] is reported as 80-95%.
Regarding “B-HH6-B-KV1 GE: afucosylated type II anti-CD20 antibody; humanized B-Ly1 IgG1, VH SEQ ID NO: 7 (B-HH6), VL SEQ ID NO: 20 (B-KV1), glycoengineered”, in assay [2], the “tumor growth inhibition compared to the control group” value turned out to be 86%. Moreover, the cell reduction in assay [3] is given as 30-45%; in assay [4] it was 5%; in assay [5], 65-75%; in assay [6] it was 20-30%.
